According to PMC6102326, “Characterization of an Omega-3 Desaturase From Phytophthora parasitica and Application for Eicosapentaenoic Acid Production in Mortierella alpina” (Frontiers in Microbiology, 2018):

Biological target: T1, PPD17 (omega-3 desaturase; delta-17 desaturase) (Phytophthora nicotianae, UniProt V9F8I2)
T1 construct: gene F443_08426; full length, 361 residues, codon-optimized oPPD17 in pYES2/NT C (His-tagged), expressed in S. cerevisiae INVSc1; 4 predicted TM domains; C-terminal KTKST; His boxes HDAGH, HRHHH, HQIHH
T1 sequence (V9F8I2 1-361): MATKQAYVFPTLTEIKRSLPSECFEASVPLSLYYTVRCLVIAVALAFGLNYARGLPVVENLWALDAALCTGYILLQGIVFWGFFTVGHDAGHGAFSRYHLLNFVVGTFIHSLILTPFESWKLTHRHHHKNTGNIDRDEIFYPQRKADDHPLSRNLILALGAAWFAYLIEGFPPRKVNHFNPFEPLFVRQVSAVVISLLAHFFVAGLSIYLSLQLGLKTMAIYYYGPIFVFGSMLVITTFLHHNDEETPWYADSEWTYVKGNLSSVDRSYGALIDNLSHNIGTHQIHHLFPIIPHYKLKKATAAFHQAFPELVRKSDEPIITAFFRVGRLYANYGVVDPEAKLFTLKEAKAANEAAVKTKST
Assay: fatty acid feeding of yeast expressing PPD17, FAME analysis by GC-MS
Type: cell-based
Settings: free acid fed to culture, 0.2 mM, 12 °C and 28 °C; product eicosatetraenoic acid

With CCCCC/C=C\C/C=C\C/C=C\CCCCCCC(=O)O [DGLA, dihomo-gamma-linolenic acid] the “fatty acid feeding of yeast expressing PPD17, FAME analysis by GC-MS” value was “PPD17 had stronger substrate preference for C20-PUFA substrate AA and DGLA”.
